Key:
Assay type in all cases: in vivo
[1] = system: Phakopsora pachyrhizi; assay: Fungicidal activity: Asian soybean rust (PHAKPA); settings: 25 ppm; for Disease Control PHAKPA 1DP: 1 Day Protectant; for Disease Control PHAKPA 3DC: 3 Day Curative
Description: Evaluation of Fungicidal Activity: Asian Soybean Rust (Phakopsora pachyrhizi; Bayer Code […]) Technical grades of materials were dissolved in acetone, which were then mixed with nine volumes of water containing 0.011% Tween 20. The fungicide solutions were applied onto soybean seedlings using an automated booth sprayer to run-off. All sprayed plants were allowed to air dry prior to further handling. Soybean plants (variety Williams 82) were grown in soil-less Metro mix, with one plant per pot. Two weeks old seedlings were used for testing. […] Plants were incubated for 24 h in a dark dew room at 22° C. and 100% RH then transferred to a growth room at 23° C. for disease to develop. Disease severity was assessed on the sprayed leaves.

[2] = system: Erysiphe cichoracearum; assay: Fungicidal activity: powdery mildew of cucumber (ERYSCI); settings: Golovinomyces cichoracearum, 24 h, 1 Day Protectant, read-out: Disease Control ERYSCI 1DP
Description: Technical grades of materials were dissolved in acetone, which were then mixed with nine volumes of water containing 110 ppm Triton X-100. The fungicide solutions were applied onto wheat seedlings using an automated booth sprayer to run-off. All sprayed plants were allowed to air dry prior to further handling. Wheat plants (variety Yuma) were grown from seed in a greenhouse in 50% mineral soil/50% soil-less Metro mix until the first leaf was fully emerged, with 7-10 seedlings per pot. These plants were inoculated with an aqueous spore suspension of Septoria tritici either prior to or after fungicide treatments. After inoculation the plants were kept in 100% relative humidity (one day in a dark dew chamber followed by two to three days in a lighted dew chamber at 20° C.) to permit spores to germinate and infect the leaf. The plants were then transferred to a greenhouse set at 20° C. for disease to develop. When disease symptoms were fully expressed on the 1st leaves of untreated plants, infection levels were assessed on a scale of 0 to 100 percent disease severity. Percent disease control was calculated using the ratio of disease severity on treated plants relative to untreated plants. Evaluation of Fungicidal Activity: Powdery Mildew of Cucumber (Erysiphe cichoracearum; Bayer Code […]) Cucumber seedlings (variety Bush Pickle) were grown in soil-less Metro mix, with one plant per pot, and used in the test when 12 to 14 days old. Plants were inoculated with a spore suspension 24 hr following fungicide treatments. After inoculation the plants remained in the greenhouse set at 20° C. until disease was fully expressed. Fungicide formulation, application and disease assessment on the sprayed leaves followed the procedures as described in the Example A.

[3] = system: Rhyncosporium secalis; assay: Fungicidal activity: barley scald (RHYNSE); settings: 100 ppm, 1 Day Protectant
Description: Technical grades of materials were dissolved in acetone, which were then mixed with nine volumes of water containing 110 ppm Triton X-100. The fungicide solutions were applied onto wheat seedlings using an automated booth sprayer to run-off. All sprayed plants were allowed to air dry prior to further handling. Wheat plants (variety Yuma) were grown from seed in a greenhouse in 50% mineral soil/50% soil-less Metro mix until the first leaf was fully emerged, with 7-10 seedlings per pot. These plants were inoculated with an aqueous spore suspension of Septoria tritici either prior to or after fungicide treatments. After inoculation the plants were kept in 100% relative humidity (one day in a dark dew chamber followed by two to three days in a lighted dew chamber at 20° C.) to permit spores to germinate and infect the leaf. The plants were then transferred to a greenhouse set at 20° C. for disease to develop. When disease symptoms were fully expressed on the 1st leaves of untreated plants, infection levels were assessed on a scale of 0 to 100 percent disease severity. Percent disease control was calculated using the ratio of disease severity on treated plants relative to untreated plants. Evaluation of Fungicidal Activity: Barley Scald (Rhyncosporium secalis; Bayer Code […]) Barley seedlings (variety Harrington) were propagated in soil-less Metro mix, with each pot having 8 to 12 plants, and used in the test when first leaf was fully emerged. Test plants were inoculated by an aqueous spore suspension of Rhyncosporium secalis 24 hr after fungicide treatments. After inoculation the plants were kept in a dew room at 20° C. with 100% relative humidity for 48 hr. The plants were then transferred to a greenhouse set at 20° C. for disease to develop. Fungicide formulation, application and disease assessment on the sprayed leaves followed the procedures as described in the Example A.

SMILES | Disease Control PHAKPA 1DP [1] | pest or weed control at 100 ppm [2] [%] | Disease Control RHYNSE 1 DP [3] | Disease Control PHAKPA 3DC [1]
CCC(C)(C)O[C@H]1COC[C@H](NC(=O)c2nccc(OC)c2OCOC(C)=O)C(=O)O[C@@H](C)[C@@H]1OCC(C)C [Compound 78] | A (80-100) | 80 to 100 | – | –
COc1ccnc(C(=O)N[C@H]2COC[C@H](OC(=O)C(C)C)[C@@H](OC(=O)C(C)C)[C@H](C)OC2=O)c1OCOC(C)=O [Compound 57] | – | 0 to 80 | – | –
COc1ccnc(C(=O)N[C@H]2COC[C@H](OCC(C)C)[C@@H](OCC(C)C)[C@H](C)OC2=O)c1OCOC(C)=O [Compound 3, (2-((3S,7S,8S,9S)-7,8-diisobutoxy-9-methyl-2-oxo-1,5-dioxonan-3-ylcarbamoyl)-4-methoxypyridin-3-yloxy)methyl] | A (80-100) | 0 to 80 | – | –
COc1ccnc(C(=O)N[C@H]2COC[C@H](OCC(C)C)[C@@H](Oc3ccccc3)[C@H](C)OC2=O)c1OCOC(C)=O [Compound 85] | – | 0 to 80 | – | –
COc1ccnc(C(=O)N[C@H]2COC[C@H](Oc3ccc(F)cc3)[C@@H](Oc3ccc(F)cc3)[C@H](C)OC2=O)c1OCOC(C)=O [Compound 231] | – | 0 to 80 | A (80-100) | –
COc1ccnc(C(=O)N[C@H]2COC[C@H](Oc3ccc(F)cc3)[C@@H](Oc3ccc(F)cc3)[C@H](C)OC2=O)c1OC(C)=O [Compound 229, 2-(((3S,7S,8S,9S)-7,8-bis(4-fluorophenoxy)-9-methyl-2-oxo-1,5-dioxonan-3-yl)carbamoyl)-4-methoxypyridin-3-yl acetate] | – | 0 to 80 | A (80-100) | –
COc1ccnc(C(=O)N[C@H]2COC[C@H](OCCCC(F)(F)F)[C@@H](OCCCC(F)(F)F)[C@H](C)OC2=O)c1OCOC(C)=O [Compound 68] | – | 0 to 80 | – | –
CCCO[C@H]1[C@H](C)OC(=O)[C@@H](NC(=O)c2nccc(OC)c2OCOC(C)=O)COC[C@@H]1Oc1ccccc1 [Compound 222] | A (80-100) | – | A (80-100) | A (80-100)
CCCO[C@H]1COC[C@H](NC(=O)c2nccc(OC)c2OCOC(C)=O)C(=O)O[C@@H](C)[C@@H]1Oc1ccccc1 [Compound 221] | A (80-100) | – | A (80-100) | A (80-100)
COc1ccnc(C(=O)N[C@H]2COC[C@H](Oc3ccccc3)[C@@H](OCC(C)C)[C@H](C)OC2=O)c1OCOC(C)=O [Compound 86] | A (80-100) | 0 to 80 | – | A (80-100)
COc1ccnc(C(=O)N[C@H]2COC[C@H](OCC(C)C)[C@@H](OCC(C)C)[C@H](C)OC2=O)c1OCOC(=O)C(C)C [Compound 2] | – | 80 to 100 | – | –
COc1ccnc(C(=O)N[C@H]2COC[C@H](OCC(C)C)[C@@H](OC3CCCCC3)[C@H](C)OC2=O)c1OCOC(C)=O [Compound 77] | B (More than 0-Less than 80) | 0 to 80 | – | –
COc1ccnc(C(=O)N[C@H]2COC[C@H](Oc3ccccc3)[C@@H](Oc3ccccc3)[C@H](C)OC2=O)c1OCOC(C)=O [Compound 84] | A (80-100) | 0 to 80 | A (80-100) | A (80-100)

Source: US9144239B2, “Macrocyclic picolinamides as fungicides” (DOW AGROSCIENCES LLC, priority 2012, dated 2015)
